Assay results taken from patent US20140107109A1, “AMINO-DIHYDROTHIAZINE AND AMINO-DIOXIDO DIHYDROTHIAZINE COMPOUNDS AS BETA-SECRETASE ANTAGONISTS AND METHODS OF USE” (Amgen Inc., priority 2012, published 2014).
Where two headings read alike, the source gives them in different places.

Columns and labels:
Cathepsin D (Cat D) = target: T1, Cathepsin D (Cat D) (Homo sapiens, UniProt P07339); assay: In vitro enzymatic Cathepsin D (Cat D) FRET assay; type: biochemical; conditions: read-out: CatD IC50
T1 construct: Recombinant Cat D was expressed in CHO cells; made in house; host or cells: CHO cells
T1 sequence (P07339 65-412, species assumed): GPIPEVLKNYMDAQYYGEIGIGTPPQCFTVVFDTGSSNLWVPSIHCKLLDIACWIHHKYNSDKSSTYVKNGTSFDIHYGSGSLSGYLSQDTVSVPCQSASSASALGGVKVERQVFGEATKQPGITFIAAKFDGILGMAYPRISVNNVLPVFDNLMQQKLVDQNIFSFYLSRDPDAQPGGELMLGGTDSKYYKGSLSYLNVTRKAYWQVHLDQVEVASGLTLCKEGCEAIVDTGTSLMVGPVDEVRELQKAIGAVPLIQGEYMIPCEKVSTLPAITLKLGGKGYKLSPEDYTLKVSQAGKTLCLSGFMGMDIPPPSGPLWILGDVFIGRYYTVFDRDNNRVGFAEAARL
Summary of the method: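 FRET read-out: a fluorophore/quencher-labelled peptide substrate is cleaved by 9 nM Cat D (recombinant, CHO-expressed) following a one-hour preincubation with inhibitor dilutions in DMSO. Tris buffer added to neutralize pH ends the reaction before fluorescence measurement.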

[1] = test system: Aβ40 in conditioned medium of cells stably expressing Amyloid Precursor Protein (APP); assay: In vitro BACE cell-based assay (HEK cell assay), Aβ40 sandwich ELISA; conditions: Homo sapiens, HEK293
Summary of the method: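 Aβ40 in conditioned medium was quantified by time-resolved fluorescence sandwich ELISA (pAb40 capture 3 h at 4 °C, biotin-6E10 detection 2 h at 4 °C) after 24 h compound exposure of APP-expressing cells. Doses spanned 10 points from 100 μM or 10 μM top, 0.1% DMSO; IC50 was derived from percent of control.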

[2] = target: Beta Secretase enzyme (BACE1) (Homo sapiens, UniProt P56817); assay: In vitro enzymatic BACE FRET assay; type: biochemical; conditions: read-out: BACE1 FRET assay IC50
Chain of Beta Secretase enzyme (BACE1) (P56817 46-501): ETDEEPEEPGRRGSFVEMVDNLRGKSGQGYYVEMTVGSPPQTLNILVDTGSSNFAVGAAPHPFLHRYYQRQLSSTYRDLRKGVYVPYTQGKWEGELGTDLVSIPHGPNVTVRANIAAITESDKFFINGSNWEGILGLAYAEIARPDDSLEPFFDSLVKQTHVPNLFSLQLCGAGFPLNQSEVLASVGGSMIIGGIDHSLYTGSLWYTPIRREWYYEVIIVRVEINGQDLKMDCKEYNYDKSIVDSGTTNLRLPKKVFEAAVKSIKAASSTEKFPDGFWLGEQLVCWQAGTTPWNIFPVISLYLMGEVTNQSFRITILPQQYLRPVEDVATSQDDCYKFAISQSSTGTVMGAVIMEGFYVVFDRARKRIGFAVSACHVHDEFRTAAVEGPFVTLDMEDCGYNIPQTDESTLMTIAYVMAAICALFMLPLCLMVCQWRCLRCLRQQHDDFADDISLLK
Summary of the method: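 Readout: dequenched fluorescence (ex 488 nm/[…]) after neutralizing with Tris buffer. Reactions, begun by adding 50 nM quenched peptide substrate spanning the BACE cleavage site, were incubated one hour at pH 4.2 in 0.05 M acetate with 100 uM genapol and 10% final DMSO.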

| Structure (SMILES) | IC50 (Cathepsin D (Cat D)) | IC50 ([1]; average IC50, HEK cells) | IC50 ([2]; average IC50) | IC50 ([1]; average IC50, cell assay) | IC50 ([2]; average IC50, enzyme assay) |
| --- | --- | --- | --- | --- | --- |
| Cc1cc(Cl)cnc1C(=O)Nc1ccc(F)c([C@]2(CF)CS(=O)(=O)C3(CC3)C(N)=N2)c1 [Example 216, N-(3-((6S)-8-amino-6-(fluoromethyl)-4,4-dioxido-4-thia-7-azaspiro[2.5]oct-7-en-6-yl)-4-fluorophenyl)-5-chloro-3-methyl-2-pyridinecarboxamide] | 132000 nM | 4.4 nM | 0.54 nM | – | – |
| Cc1cc(OC(F)F)cnc1C(=O)Nc1ccc(F)c([C@]2(CF)CS(=O)(=O)C3(CC3)C(N)=N2)c1 [Example 217, N-(3-((6S)-8-amino-6-(fluoromethyl)-4,4-dioxido-4-thia-7-azaspiro[2.5]oct-7-en-6-yl)-4-fluorophenyl)-5-(difluoromethoxy)-3-methyl-2-pyridinecarboxamide] | 46800 nM | 6.1 nM | 1.2 nM | – | – |
| Cc1cc(OC(F)F)cnc1C(=O)Nc1ccc(F)c([C@@]2(CF)CS(=O)(=O)C3(CC3)C(N)=N2)c1 [Example 218, N-(3-((6R)-8-amino-6-(fluoromethyl)-4,4-dioxido-4-thia-7-azaspiro[2.5]oct-7-en-6-yl)-4-fluorophenyl)-5-(difluoromethoxy)-3-methyl-2-pyridinecarboxamide] | 637000 nM | 830 nM | 150 nM | – | – |
| COc1cnc2c(Nc3cnc(F)c([C@]4(C)CS(=O)(=O)C(C)(C)C(N)=N4)c3)ncc(F)c2c1 [Example 219, N-(5-((3R)-5-amino-3,6,6-trimethyl-1,1-dioxido-3,6-dihydro-2H-1,4-thiazin-3-yl)-6-fluoro-3-pyridinyl)-5-fluoro-3-methoxy-1,7-naphthyridin-8-amine] | 39700 nM | – | – | 2.9 nM | 1.44 nM |
| CC1(C)C(N)=N[C@](C)(c2cc(Nc3ncc(F)c4cc(Cl)cnc34)cnc2F)CS1(=O)=O [Example 220, N-(5-((3R)-5-amino-3,6,6-trimethyl-1,1-dioxido-3,6-dihydro-2H-1,4-thiazin-3-yl)-6-fluoro-3-pyridinyl)-3-chloro-5-fluoro-1,7-naphthyridin-8-amine] | 15200 nM | – | – | 3.3 nM | < 2 nM |
| CC1(C)C(N)=N[C@](C)(c2cc(Nc3ncc(F)c4cc(C#N)cnc34)cnc2F)CS1(=O)=O [Example 221, 8-((5-((3R)-5-amino-3,6,6-trimethyl-1,1-dioxido-3,6-dihydro-2H-1,4-thiazin-3-yl)-6-fluoro-3-pyridinyl)amino)-5-fluoro-1,7-naphthyridine-3-carbonitrile] | 43100 nM | – | – | 5.8 nM | 1.94 nM |
| COc1cnc2c(Nc3cnc(F)c([C@]4(C)CS(=O)(=O)C(C)(C)C(N)=N4)c3)nccc2n1 [Example 222, N-(5-((3R)-5-amino-3,6,6-trimethyl-1,1-dioxido-3,6-dihydro-2H-1,4-thiazin-3-yl)-6-fluoro-3-pyridinyl)-2-methoxypyrido[3,4-b]pyrazin-5-amine] | 280000 nM | – | – | 3.6 nM | 2.59 nM |
| CC1(C)C(N)=N[C@](C)(c2cc(Nc3nccc4cc(Cl)cnc34)cnc2F)CS1(=O)=O [Example 223, N-(5-((3R)-5-amino-3,6,6-trimethyl-1,1-dioxido-3,6-dihydro-2H-1,4-thiazin-3-yl)-6-fluoro-3-pyridinyl)-3-chloro-1,7-naphthyridin-8-amine] | 23800 nM | – | – | 5.4 nM | 0.82 nM |
| CC1(C)C(N)=N[C@](C)(c2cc(Nc3nccc4nc(C(F)(F)F)cnc34)cnc2F)CS1(=O)=O [Example 224, N-(5-((3R)-5-amino-3,6,6-trimethyl-1,1-dioxido-3,6-dihydro-2H-1,4-thiazin-3-yl)-6-fluoro-3-pyridinyl)-2-(trifluoromethyl)pyrido[3,4-b]pyrazin-5-amine] | 457000 nM | – | – | 39.9 nM | 16 nM |
| CC1(C)C(N)=N[C@](C)(c2cc(Nc3ncnc4cc(Cl)cnc34)cnc2F)CS1(=O)=O [Example 225, N-(5-((3R)-5-amino-3,6,6-trimethyl-1,1-dioxido-3,6-dihydro-2H-1,4-thiazin-3-yl)-6-fluoro-3-pyridinyl)-7-chloropyrido[3,2-d]pyrimidin-4-amine] | 33000 nM | – | – | 12.2 nM | 3.28 nM |
| CC#CCOc1cnc2c(Nc3ccc(F)c([C@]4(C)CS(=O)(=O)[C@@](C)(F)C(N)=N4)c3)nccc2c1 [Example 226, N-(3-((3R,6R)-5-amino-6-fluoro-3,6-dimethyl-1,1-dioxido-3,6-dihydro-2H-1,4-thiazin-3-yl)-4-fluorophenyl)-3-(2-butyn-1-yloxy)-1,7-naphthyridin-8-amine] | > 400000 nM | – | – | 5.74 nM | 0.74 nM |
| C[C@@]1(c2cc(Nc3nccc4cc(Cl)cnc34)cnc2F)CS(=O)(=O)C2(CCC2)C(N)=N1 [Example 230, N-(5-((7R)-9-amino-7-methyl-5,5-dioxido-5-thia-8-azaspiro[3.5]non-8-en-7-yl)-6-fluoro-3-pyridinyl)-3-chloro-1,7-naphthyridin-8-amine] | 23200 nM | – | – | 18.8 nM | 3.76 nM |
| COc1cnc2c(Nc3cnc(F)c([C@]4(C)CS(=O)(=O)C5(CCC5)C(N)=N4)c3)nccc2n1 [Example 231, N-(5-((7R)-9-amino-7-methyl-5,5-dioxido-5-thia-8-azaspiro[3.5]non-8-en-7-yl)-6-fluoro-3-pyridinyl)-2-methoxypyrido[3,4-b]pyrazin-5-amine] | 163000 nM | – | – | 18.1 nM | 6.41 nM |
| COc1cnc2c(Nc3ccc(F)c([C@@]4(C)N=C(N)C5(CCC5)S(=O)(=O)C4F)c3)nccc2n1 (stereo partly drawn) [Example 232, N-(3-((7R)-9-amino-6-fluoro-7-methyl-5,5-dioxido-5-thia-8-azaspiro[3.5]non-8-en-7-yl)-4-fluorophenyl)-2-methoxypyrido[3,4-b]pyrazin-5-amine] | 303000 nM | – | – | 78.4 nM | 13.1 nM |
| CC1(C)C(N)=N[C@](CF)(c2cc(Nc3ncc(F)c4cc(Cl)cnc34)ccc2F)CS1(=O)=O [Example 233, N-(3-((3S)-5-amino-3-(fluoromethyl)-6,6-dimethyl-1,1-dioxido-3,6-dihydro-2H-1,4-thiazin-3-yl)-4-fluorophenyl)-3-chloro-5-fluoro-1,7-naphthyridin-8-amine] | 143000 nM | – | – | 84.5 nM | 0.31 nM |
| CC1(C)C(N)=N[C@](CF)(c2cc(Nc3nccc4nc(C(F)(F)F)cnc34)ccc2F)CS1(=O)=O [Example 234, N-(3-((3S)-5-amino-3-(fluoromethyl)-6,6-dimethyl-1,1-dioxido-3,6-dihydro-2H-1,4-thiazin-3-yl)-4-fluorophenyl)-2-(trifluoromethyl)pyrido[3,4-b]pyrazin-5-amine] | > 14800 nM | – | – | 105 nM | 2.03 nM |
| CC1(C)C(N)=N[C@](CF)(c2cc(Nc3ncnc4cc(Cl)cnc34)ccc2F)CS1(=O)=O [Example 235, N-(3-((3S)-5-amino-3-(fluoromethyl)-6,6-dimethyl-1,1-dioxido-3,6-dihydro-2H-1,4-thiazin-3-yl)-4-fluorophenyl)-7-chloropyrido[3,2-d]pyrimidin-4-amine] | 68200 nM | – | – | 30.8 nM | 3.26 nM |
